Drawing on patent publication US20240360178A1, “MACROCYCLIC IMMUNOMODULATORS” (Bristol-Myers Squibb Company, priority 2021, published 2024), this text covers IC50 for 16 compounds.

Each structure is given as a SMILES string. Positions of bridges follow the written chain, without caps; N, C: chain ends. Non-standard residues stand in square brackets, D forms with d. Residues, ends and D or L forms follow the SMILES beside them. Tyr(3-NO2) = N[C@@H](Cc1ccc(O)c([N+](=O)[O-])c1)C(=O)O; Phe(3-CF3) = N[C@@H](Cc1cccc(C(F)(F)F)c1)C(=O)O; Phe(4-COOH) = N[C@@H](Cc1ccc(C(=O)O)cc1)C(=O)O; Bip = N[C@@H](Cc1ccc(-c2ccccc2)cc1)C(=O)O; Phe(4-NH2) = Nc1ccc(C[C@H](N)C(=O)O)cc1; hTyr = N[C@@H](CCc1ccc(O)cc1)C(=O)O; NMeF = CN[C@@H](Cc1ccccc1)C(=O)O; 3Pal = N[C@@H](Cc1cccnc1)C(=O)O; NMeS = CN[C@@H](CO)C(=O)O; NMeA = CN[C@@H](C)C(=O)O; Nle = CCCC[C@H](N)C(=O)O; Orn = NCCC[C@H](N)C(=O)O; dNMeA = CN[C@H](C)C(=O)O; Sar = CNCC(=O)O

Broadly, the IC50 is the concentration at which inhibition is half-maximal.

T1 sequence (Q15116 25-288): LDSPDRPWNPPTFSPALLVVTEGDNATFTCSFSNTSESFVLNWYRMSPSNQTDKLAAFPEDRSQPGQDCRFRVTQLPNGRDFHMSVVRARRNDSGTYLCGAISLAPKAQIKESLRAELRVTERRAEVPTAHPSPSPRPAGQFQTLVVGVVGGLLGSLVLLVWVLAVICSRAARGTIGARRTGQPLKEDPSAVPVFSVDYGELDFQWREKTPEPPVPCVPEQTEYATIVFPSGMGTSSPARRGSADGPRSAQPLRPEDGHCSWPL

The experiment concerns the target T1, human PD-1 (Jurkat-PD-1 cells) / PE-labeled human PD-L1-Ig (Homo sapiens, UniProt Q15116).
T1 construct: expressed in transfected cells; host or cells: Jurkat cell line over-expressing human PD-1
The experiment can be described thus: Jurkat-PD-1 Cell Binding High-Content Screening Assay (CBA); Jurkat hPD1-PDL1 assay. To be noted: Jurkat cell line over-expressing human PD-1; PE-labeled PD-L1-Ig 20 nM final; compound incubated 2 hours at 37° C.; read-out: Jurkat HPD1-PDL1 IC50. The essentials: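 Jurkat cells overexpressing human PD-1 (8×10^3 per well, DMEM with 10% FCS) were preincubated with compound for 2 hours at 37° C. PE-labeled human PD-L1-Ig was then added at 20 nM final. Binding was quantified by high-content imaging.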
Regarding `CCCC[C@@H]1NC(=O)[C@H](CC(N)=O)NC(=O)CN(C)C(=O)[C@H](C)N(C)C(=O)[C@H](C(C)C)NC(=O)[C@H](Cc2ccc(-c3ccccc3)cc2)NC(=O)[C@H](CC(C)C)NC(=O)[C@H](Cc2c[nH]c3ccccc23)NC(=O)[C@H](CC(=O)O)NC(=O)[C@H](Cc2ccc(O)cc2)NC(=O)[C@H](Cc2ccccc2)NC(=O)CSC[C@@H](C(=O)NCC(N)=O)NC(=O)[C@H](CO)NC(=O)[C@H](C(C)C)NC1=O` [Example 1073] ({CH2CO}-FYDWL[Bip]V[NMeA][Sar]N[Nle]VSCG-NH2; thioether N-14), the half-inhibitory concentration (IC50) came to 190 nM.

Consider `CC(C)C[C@@H]1NC(=O)[C@H](CCCNC(=N)N)NC(=O)[C@H](Cc2ccccc2)N(C)C(=O)[C@H](C)N(C)C(=O)[C@H](CCCNC(=N)N)NC(=O)[C@H](Cc2ccc(-c3ccccc3)cc2)NC(=O)[C@H](C(C)C)NC(=O)[C@H](Cc2c[nH]c3ccccc23)NC(=O)[C@H](CC(=O)O)NC(=O)[C@H](Cc2ccc(O)cc2)NC(=O)[C@H](Cc2ccccc2)NC(=O)CSC[C@@H](C(=O)N[C@@H](C)C(N)=O)NC(=O)[C@H](CO)NC(=O)[C@H](C(C)C)NC1=O` [Example 1074] ({CH2CO}-FYDWV[Bip]R[NMeA][NMeF]RLVSCA-NH2; thioether N-14), for which the IC50 came out at 190 nM.

Take `CC(C)C[C@@H]1NC(=O)[C@H](CCCNC(=N)N)NC(=O)[C@H]2CCCN2C(=O)[C@H](C)N(C)C(=O)[C@H](C(C)C)NC(=O)[C@H](Cc2ccc(-c3ccccc3)cc2)NC(=O)[C@H](C(C)C)NC(=O)[C@H](Cc2c[nH]c3ccccc23)NC(=O)[C@H](CC(=O)O)NC(=O)[C@H](Cc2ccc(O)cc2)NC(=O)[C@H](Cc2ccccc2)NC(=O)CSC[C@@H](C(=O)N[C@@H](C)C(N)=O)NC(=O)[C@H](CO)NC(=O)[C@H](C(C)C)NC1=O` [Example 1075] ({CH2CO}-FYDWV[Bip]V[NMeA][dP]RLVSCA-NH2; thioether N-14): the IC50 turned out to be 200 nM.

For `CC(C)C[C@@H]1NC(=O)[C@H](Cc2c[nH]c3ccccc23)NC(=O)[C@H](CC(=O)O)NC(=O)[C@H](Cc2ccc(N)cc2)NC(=O)[C@H](Cc2ccccc2)NC(=O)CSC[C@@H](C(=O)N[C@@H](C)C(N)=O)NC(=O)[C@H](CO)NC(=O)[C@H](C(C)C)NC(=O)[C@H](CC(C)C)NC(=O)[C@H](CC(N)=O)NC(=O)CN(C)C(=O)[C@H](C)N(C)C(=O)[C@H](C(C)C)NC(=O)[C@H](Cc2ccc(-c3ccccc3)cc2)NC1=O` [Example 1076] ({CH2CO}-F[Phe(4-NH2)]DWL[Bip]V[NMeA][Sar]NLVSCA-NH2; thioether N-14), the IC50 is 210 nM.

For the compound `CC(C)C[C@@H]1NC(=O)CSC[C@@H](C(=O)NCC(N)=O)NC(=O)[C@H](CO)NC(=O)[C@H](C(C)C)NC(=O)[C@H](CC(C)C)NC(=O)[C@H](CCCNC(=N)N)NC(=O)[C@H](Cc2ccccc2)N(C)C(=O)[C@H](C)N(C)C(=O)[C@H](CCCNC(=N)N)NC(=O)[C@H](Cc2ccc(-c3ccccc3)cc2)NC(=O)[C@H](C(C)C)NC(=O)[C@H](Cc2c[nH]c3ccccc23)NC(=O)[C@H](CC(=O)O)NC(=O)[C@H](Cc2ccc(O)cc2)NC1=O` [Example 1077] ({CH2CO}-LYDWV[Bip]R[NMeA][NMeF]RLVSCG-NH2; thioether N-14), the IC50 turned out to be 210 nM.

As to `CC(C)C[C@@H]1NC(=O)[C@H](Cc2c[nH]c3ccccc23)NC(=O)[C@H](CC(=O)O)NC(=O)[C@H](Cc2ccc(O)cc2)NC(=O)[C@H](Cc2ccccc2)NC(=O)CSC[C@@H](C(=O)N[C@@H](C)C(N)=O)NC(=O)[C@H](CO)NC(=O)[C@H](C(C)C)NC(=O)[C@H](CC(C)C)NC(=O)[C@H](CCCNC(=N)N)NC(=O)[C@H](Cc2ccccc2)N(C)C(=O)[C@H](C)N(C)C(=O)[C@H](CCCNC(=N)N)NC(=O)[C@H](Cc2ccc(-c3ccccc3)cc2)NC1=O` [Example 1078] ({CH2CO}-FYDWL[Bip]R[NMeA][NMeF]RLVSCA-NH2; thioether N-14), the IC50 stood at 220 nM.

Regarding `CC(C)C[C@@H]1NC(=O)[C@H](Cc2c[nH]c3ccccc23)NC(=O)[C@H](CC(=O)O)NC(=O)[C@H](Cc2ccc(O)cc2)NC(=O)[C@H](Cc2ccccc2)NC(=O)CSC[C@@H](C(=O)NCC(N)=O)NC(=O)[C@H](CO)NC(=O)[C@H](C(C)C)NC(=O)[C@H](CC(C)C)NC(=O)[C@H](CCCN)NC(=O)CN(C)C(=O)[C@H](C)N(C)C(=O)[C@H](C(C)C)NC(=O)[C@H](Cc2ccc(-c3ccccc3)cc2)NC1=O` [Example 1079] ({CH2CO}-FYDWL[Bip]V[NMeA][Sar][Orn]LVSCG-NH2; thioether N-14), the IC50 was 220 nM.

Consider `CC(C)C[C@@H]1NC(=O)[C@H](Cc2c[nH]c3ccccc23)NC(=O)[C@H](CC(=O)O)NC(=O)[C@H](Cc2cccnc2)NC(=O)[C@H](Cc2ccccc2)NC(=O)CSC[C@@H](C(=O)N[C@@H](C)C(N)=O)NC(=O)[C@H](CO)NC(=O)[C@H](C(C)C)NC(=O)[C@H](CC(C)C)NC(=O)[C@H](CC(N)=O)NC(=O)CN(C)C(=O)[C@H](C)N(C)C(=O)[C@H](C(C)C)NC(=O)[C@H](Cc2ccc(-c3ccccc3)cc2)NC1=O` [Example 1080] ({CH2CO}-F[3Pal]DWL[Bip]V[NMeA][Sar]NLVSCA-NH2; thioether N-14), for which the IC50 turned out to be 230 nM.

Take `CC(C)C[C@@H]1NC(=O)[C@H](Cc2cccc(C(F)(F)F)c2)NC(=O)[C@H](CC(=O)O)NC(=O)[C@H](Cc2ccc(O)cc2)NC(=O)[C@H](Cc2ccccc2)NC(=O)CSC[C@@H](C(=O)N[C@@H](C)C(N)=O)NC(=O)[C@H](CO)NC(=O)[C@H](C(C)C)NC(=O)[C@H](CC(C)C)NC(=O)[C@H](CC(N)=O)NC(=O)CN(C)C(=O)[C@H](C)N(C)C(=O)[C@H](C(C)C)NC(=O)[C@H](Cc2ccc(-c3ccccc3)cc2)NC1=O` [Example 1081] ({CH2CO}-FYD[Phe(3-CF3)]L[Bip]V[NMeA][Sar]NLVSCA-NH2; thioether N-14): the IC50 came to 230 nM.

Turning to `CC(C)C[C@@H]1NC(=O)[C@H](Cc2c[nH]c3ccccc23)NC(=O)[C@H](CC(=O)O)NC(=O)[C@H](Cc2ccc(O)cc2)NC(=O)[C@H](Cc2ccccc2)NC(=O)CSC[C@@H](C(=O)NCC(N)=O)NC(=O)[C@H](CO)NC(=O)[C@H](C(C)C)NC(=O)[C@H](CC(C)C)NC(=O)[C@H](CC(N)=O)NC(=O)[C@@H](C)N(C)C(=O)[C@H](C)N(C)C(=O)[C@H](C(C)C)NC(=O)[C@H](Cc2ccc(-c3ccccc3)cc2)NC1=O` [Example 1082] ({CH2CO}-FYDWL[Bip]V[NMeA][dNMeA]NLVSCG-NH2; thioether N-14), the IC50 is 230 nM.

As to `CC(C)C[C@@H]1NC(=O)[C@H](CCCNC(=N)N)NC(=O)[C@H](Cc2ccccc2)N(C)C(=O)[C@H](C)N(C)C(=O)[C@H](CCCNC(=N)N)NC(=O)[C@H](Cc2ccc(-c3ccccc3)cc2)NC(=O)[C@H](C(C)C)NC(=O)[C@H](Cc2c[nH]c3ccccc23)NC(=O)[C@H](CC(=O)O)NC(=O)[C@H](Cc2ccc(O)cc2)NC(=O)[C@H](Cc2ccccc2)NC(=O)CSC[C@@H](C(=O)N[C@@H](CO)C(N)=O)NC(=O)[C@H](CO)NC(=O)[C@H](C(C)C)NC1=O` [Example 1083] ({CH2CO}-FYDWV[Bip]R[NMeA][NMeF]RLVSCS-NH2; thioether N-14), the IC50 turned out to be 240 nM.

Take `CC(C)C[C@@H]1NC(=O)[C@H](Cc2c[nH]c3ccccc23)NC(=O)[C@H](CC(=O)O)NC(=O)[C@H](Cc2ccc(O)cc2)NC(=O)[C@H](Cc2ccccc2)NC(=O)CSC[C@@H](C(=O)NCC(N)=O)NC(=O)[C@H](CO)NC(=O)[C@H](C(C)C)NC(=O)[C@H](CC(C)C)NC(=O)[C@H](CC(N)=O)NC(=O)[C@H](CO)N(C)C(=O)[C@H](C)N(C)C(=O)[C@H](C(C)C)NC(=O)[C@H](Cc2ccc(-c3ccccc3)cc2)NC1=O` [Example 1084] ({CH2CO}-FYDWL[Bip]V[NMeA][NMeS]NLVSCG-NH2; thioether N-14): the IC50 is 240 nM.

With `CC(C)C[C@@H]1NC(=O)[C@H](C)NC(=O)[C@H]2CCCN2C(=O)[C@H](C)N(C)C(=O)[C@H](CCC(=O)O)NC(=O)[C@H](Cc2ccc(-c3ccccc3)cc2)NC(=O)[C@H](CC(C)C)NC(=O)[C@H](Cc2c[nH]c3ccccc23)NC(=O)[C@H](CC(=O)O)NC(=O)[C@H](Cc2ccc(C(=O)O)cc2)NC(=O)[C@H](Cc2cccnc2)NC(=O)CSC[C@@H](C(=O)N[C@@H](C)C(N)=O)NC(=O)[C@H](CO)NC(=O)[C@H](C(C)C)NC1=O` [Example 1085] ({CH2CO}-[3Pal][Phe(4-COOH)]DWL[Bip]E[NMeA][dP]ALVSCA-NH2; thioether N-14), the IC50 turned out to be 240 nM.

As to `CC(C)C[C@@H]1NC(=O)[C@H](Cc2c[nH]c3ccccc23)NC(=O)[C@H](CC(=O)O)NC(=O)[C@H](CCc2ccc(O)cc2)NC(=O)[C@H](Cc2ccccc2)NC(=O)CSC[C@@H](C(=O)N[C@@H](C)C(N)=O)NC(=O)[C@H](CO)NC(=O)[C@H](C(C)C)NC(=O)[C@H](CC(C)C)NC(=O)[C@H](CC(N)=O)NC(=O)CN(C)C(=O)[C@H](C)N(C)C(=O)[C@H](C(C)C)NC(=O)[C@H](Cc2ccc(-c3ccccc3)cc2)NC1=O` [Example 1086] ({CH2CO}-F[hTyr]DWL[Bip]V[NMeA][Sar]NLVSCA-NH2; thioether N-14), the IC50 was 250 nM.

`CC(C)C[C@@H]1NC(=O)[C@H](Cc2c[nH]c3ccccc23)NC(=O)[C@H](CC(=O)O)NC(=O)[C@H](Cc2ccc(O)c([N+](=O)[O-])c2)NC(=O)[C@H](Cc2ccccc2)NC(=O)CSC[C@@H](C(=O)N[C@@H](C)C(N)=O)NC(=O)[C@H](CO)NC(=O)[C@H](C(C)C)NC(=O)[C@H](CC(C)C)NC(=O)[C@H](CC(N)=O)NC(=O)CN(C)C(=O)[C@H](C)N(C)C(=O)[C@H](C(C)C)NC(=O)[C@H](Cc2ccc(-c3ccccc3)cc2)NC1=O` [Example 1087] ({CH2CO}-F[Tyr(3-NO2)]DWL[Bip]V[NMeA][Sar]NLVSCA-NH2; thioether N-14): the IC50 is 250 nM.

In the case of `CC(C)C[C@@H]1NC(=O)[C@H](Cc2ccccc2)NC(=O)[C@H](CC(=O)O)NC(=O)[C@H](Cc2ccc(O)cc2)NC(=O)[C@H](Cc2ccccc2)NC(=O)CSC[C@@H](C(=O)NCC(N)=O)NC(=O)[C@H](CO)NC(=O)[C@H](C(C)C)NC(=O)[C@H](CC(C)C)NC(=O)[C@H](CC(N)=O)NC(=O)CN(C)C(=O)[C@H](C)N(C)C(=O)[C@H](C(C)C)NC(=O)[C@H](Cc2ccc(-c3ccccc3)cc2)NC1=O` [Example 1088] ({CH2CO}-FYDFL[Bip]V[NMeA][Sar]NLVSCG-NH2; thioether N-14), the IC50 stood at 250 nM.
